Results from US20050192262A1, “Treatment of tumours” (priority 2001, published 2005).
Like-named read-outs stand apart in the source and are kept apart here.

Columns and labels:
DU-145 = experiment: Facscan viability (chlorofluoresceindiacetate / propidiumiodide); assay type: cell-based, human; settings: 200 nM 17α-AED + rat liver cytosol + PAPS, Herceptin 1:150, 72 hours
Protocol: (§1) Effects of HER-2 and 17α-AED-3β-sulfate in breast and prostate cancer cell lines. Cell cultures of prostate cancer cell lines PC-3 and DU-145 as well as mammary cancer cell lines MCF-7 and SKBR-3 were grown in flasks as previously described in the presence or absence of a 200 nM 17α-AED. Cultures containing 17α-AED were further subdivided and these cultures were grown in the presence or absence of Herceptin®, her-2 antibodies, using a stem solution of 1 mg/ml which was further diluted, making the final concentration 1:150 In the cell suspension.
(§2) Representations of each cell line containing no steroid were also treated with herceptin as above. For each cell line and variation of treatment 3 different culture flasks were used.
(§3) Further, a mixture of 100 μL rat liver cytosol and 20 μL of 3′-phosphoadenosine-5′-phosphosulphate (PAPS), corresponding to approximately 0.16 mg of PAPS was shared between and added to cultures containing 17α-AED.
(§4) Finally, for each cell line three samples were kept as untreated controls.
(§5) To estimate the number of viable cells a solution of chlorofluoresceindiacetate was added to the cultures on the last day of culture. This chemical penetrates freely into cells, but is metabolized in the living cell into a form with green fluorescence unable to leave the cell. As counterstaining, to detect dead cells, propidiumiodide, giving a red fluorescence, was added 15 minutes before analyzing the samples in a Facscan. Time for 10000 cells to pass the detector in the Facscan was estimated in order to detect a possible growth inhibitory effect, not resulting in an increased number of dead cells.

MCF-7 = experiment: as above; assay type: cell-based, human; settings: 200 nM 17α-AED + rat liver cytosol + PAPS, Herceptin 1:150, 72 hours
Protocol: as §1, §2, §3, §4, §5

PC-3 = experiment: as above; assay type: cell-based, human; settings: 200 nM 17α-AED + rat liver cytosol + PAPS, Herceptin 1:150, 72 hours
Protocol: as §1, §2, §3, §4, §5

SKBR-3 = experiment: as above; assay type: cell-based, human; settings: 200 nM 17α-AED + rat liver cytosol + PAPS, Herceptin 1:150, 72 hours
Protocol: as §1, §2, §3, §4, §5

PPARγ [1] = target: T1, PPARγ (Mus musculus, UniProt P37238); experiment: Ligand-induced coactivator interaction assay (GST-PPARγ / SRC-1); assay type: biochemical; settings: for PPARγ-ligand activity, steroid + liver cytosol + PAPS / PPARγ-ligand activity, native steroid + liver cytosol: second experiment; for PPARγ-ligand activity, steroid + liver cytosol + PAPS: active liver cytosol, sulfate formed in situ; for PPARγ-ligand activity, native steroid + liver cytosol: without PAPS
T1 construct: made in house; host or cells: E. coli strain Y 1090 (GST-PPARγ); TNT Coupled Reticulocyte Lysate System, Promega (SRC-1)
T1 sequence (P37238 whole entry): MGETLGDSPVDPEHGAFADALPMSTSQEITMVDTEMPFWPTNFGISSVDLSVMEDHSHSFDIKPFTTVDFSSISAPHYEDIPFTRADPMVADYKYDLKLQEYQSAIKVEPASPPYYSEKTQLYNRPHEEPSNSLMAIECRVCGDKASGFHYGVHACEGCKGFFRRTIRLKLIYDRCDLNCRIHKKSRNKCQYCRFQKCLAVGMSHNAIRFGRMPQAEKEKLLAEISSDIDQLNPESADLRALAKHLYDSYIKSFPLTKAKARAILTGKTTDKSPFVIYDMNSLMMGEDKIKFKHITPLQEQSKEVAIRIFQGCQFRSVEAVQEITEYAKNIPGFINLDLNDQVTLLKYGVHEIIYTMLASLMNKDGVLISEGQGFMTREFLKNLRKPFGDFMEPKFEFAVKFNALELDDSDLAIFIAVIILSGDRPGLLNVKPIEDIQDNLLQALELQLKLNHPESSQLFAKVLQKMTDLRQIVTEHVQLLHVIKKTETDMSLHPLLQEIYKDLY
T1 sequence (Q15788 whole entry partner): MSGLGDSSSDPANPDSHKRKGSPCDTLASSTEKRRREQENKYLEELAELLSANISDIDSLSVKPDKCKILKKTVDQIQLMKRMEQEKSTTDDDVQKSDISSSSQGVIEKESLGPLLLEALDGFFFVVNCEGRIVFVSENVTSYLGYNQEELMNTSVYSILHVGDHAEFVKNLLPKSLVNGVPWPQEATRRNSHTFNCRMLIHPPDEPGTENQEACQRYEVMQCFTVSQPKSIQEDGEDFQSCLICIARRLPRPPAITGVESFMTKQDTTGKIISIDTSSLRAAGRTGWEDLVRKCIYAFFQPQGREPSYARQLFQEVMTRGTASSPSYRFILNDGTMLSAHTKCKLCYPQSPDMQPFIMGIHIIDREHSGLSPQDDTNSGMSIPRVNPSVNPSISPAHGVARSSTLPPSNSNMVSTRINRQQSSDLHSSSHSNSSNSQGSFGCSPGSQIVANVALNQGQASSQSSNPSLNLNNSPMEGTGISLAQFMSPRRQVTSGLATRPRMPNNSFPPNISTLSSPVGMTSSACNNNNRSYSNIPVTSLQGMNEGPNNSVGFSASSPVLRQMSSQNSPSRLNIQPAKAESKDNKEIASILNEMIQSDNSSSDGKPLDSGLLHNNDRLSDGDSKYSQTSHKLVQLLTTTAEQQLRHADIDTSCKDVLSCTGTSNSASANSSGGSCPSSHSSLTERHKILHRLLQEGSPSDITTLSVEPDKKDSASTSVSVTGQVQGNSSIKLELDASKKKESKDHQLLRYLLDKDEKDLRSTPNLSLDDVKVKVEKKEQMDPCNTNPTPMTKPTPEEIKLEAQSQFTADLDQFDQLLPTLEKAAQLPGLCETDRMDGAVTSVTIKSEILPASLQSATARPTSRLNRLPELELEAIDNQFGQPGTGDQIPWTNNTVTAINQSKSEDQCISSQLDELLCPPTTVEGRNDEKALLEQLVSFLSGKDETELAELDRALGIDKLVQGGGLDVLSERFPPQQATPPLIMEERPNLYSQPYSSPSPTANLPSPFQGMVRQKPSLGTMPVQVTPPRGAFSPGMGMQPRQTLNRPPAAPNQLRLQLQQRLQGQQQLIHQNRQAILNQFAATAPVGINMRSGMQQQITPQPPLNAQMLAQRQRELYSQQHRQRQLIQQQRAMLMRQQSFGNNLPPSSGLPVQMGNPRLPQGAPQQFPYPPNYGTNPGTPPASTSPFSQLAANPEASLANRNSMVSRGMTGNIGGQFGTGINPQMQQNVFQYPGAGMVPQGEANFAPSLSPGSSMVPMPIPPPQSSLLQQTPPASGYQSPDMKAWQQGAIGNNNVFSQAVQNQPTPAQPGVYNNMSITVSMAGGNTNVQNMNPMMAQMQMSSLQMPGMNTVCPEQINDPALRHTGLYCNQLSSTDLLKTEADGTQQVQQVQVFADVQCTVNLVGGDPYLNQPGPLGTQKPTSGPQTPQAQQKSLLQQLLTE
Protocol: ApcDNA3-SRC-1 construct was used as template to prepare (^35S-methionine)-SRC-1 by in vitro transcription and translation using the TNT® Coupled Reticulocyte Lysate System (Promega).
Ligand-induced interactions between GST-PPARγ and SRC-1: To generate GST-PPARγ fusion protein, mouse PPARγcDNA was inserted into the NcoI-HindIII sites of pGEX-KG, and protein was then expressed in E. coli, strain Y 1090. The bacteria were lysed by sonication in TEDG buffer (50 mM Tris (pH 7.4), 1.5 mM EDTA, 10% glycerol, 0.4 M NaCl, 0.1 mM DTT) containing the following protease inhibitors: 0.5 mM PMSF, 1 mM benzamidine, 10 μg/ml leupeptin, 10 μg/ml antipain and […] aprotinin. The lysates were centrifuged at 100,000×g for 60 min in a SW 41 rotor using a Beckman L8-70 M ultracentrifuge. The fusion protein was immobilized on GSH Sepharose beads (Pharmacia) and then incubated with potential ligands in (FIG. 5) 10 mM Tris (pH7.4), 0.12 M KCl, 8% glycerol, 4 mM DTT, and 0.5% CHAPS (buffer AA) for 30 min at room temperature. Thereafter, (^35S methionine) SRC-1 (ca 0.1 μCi) was added, and the beads were incubated for another hour at 4° C. and then washed extensively with buffer A. SDS sample buffer was added to the beads, and the samples boiled prior to separation on 7.5% SDS-PAGE. Radioactivity was detected by autoradiography.
α- and β-AED were investigated in above assay for PPARγ ligand activity in 10 and 100 μM solutions in ethanol 10%, in distilled water. 10 μL aliquots of α-AED-solution or β-AED-solution were also added to a preparation of a male rat liver cytosolic preparation prepared as follows:
A homogenate of a rat liver, a known source of steroid sulphotransferase activity, was prepared using a food processor. The liver homogenate was protected from serine-proteases by the addition of 2 mmol of PMSF, 1 mmol of EDTA and 10 mmol Tris-HCl buffered to a pH of 7.40. The homogenate was prepared at 4° C. and then centrifuged at 15000 g for 10 minutes, followed by centrifugation at 100000 g for an hour at 4° C. The supernatant was divided into test tubes containing one of the following steroids: 17β-AED or 17α-AED in 5 μM concentration together with 100 μL of liver cytosol. One test tube served as positive control and contained SCR-1.
In a second experiment the following steroids were tested for activity: 17α-AED, 17OH-pregnenolone and 5-androstene-3β,7β,17α-triol with and without 10 μL of […] (PAPS), Sigma Chemicals, corresponding to 0.1 mg of PAPS. One test tube served as a positive control and contained SRC-1 Instead of steroid. One test tube contained liver cytosol where the steroid sulphotransferase was inactivated by heating to 45° C. for 30 minutes. Tubes were stirred at 20° C. for 1 hour and the contents were investigated in the receptor-coactivator assay for ligand activity (FIG. 5).
17α-AED was treated in the method described by Arnostova, Libuse M.; Pouzar, Vladimir; Drasar, Pavel. Inst. Org. Chem. Biochem., Czech. Acad. Sci., Prague, Czech. Synth. Commun. (1990), 20(10), 1521-9, where acetate is used as protection group and pyridine —SO3 complex as the sulfating agent. Deprotection with an excess of 0.8M NaOH in MeOH-water provides the desired hydroxy sulfate, which is investigated, for PPARγ-activity in the ligand-activated-coactivator receptor assay described above.

PPARγ [2] = experiment: Western blotting cell lines; assay type: cell-based, human
Text: (§6) Protein blotting was repeated for DU-145 and PC-3 cell lines, which were also investigated for expression of PPARδ through antibody (H-74, sc 7197).

PPARδ = experiment: Western blotting cell lines; assay type: cell-based, human; settings: PC-3 and DU-145
Text: as §6

β-catenin = experiment: Western blotting of Dunning AT-1 rat prostate tumours; assay type: in vivo; settings: Animals II; exposure 80 hours in all arms
Protocol: (§7) The animal experiment described above was repeated.
Thawed rat tumours from both experiments above were homogenized in ice cold lysis-buffer. (160 mM NaCl, 10 mM HEPES, 2 mM CaCl2, 5% SDS, 0.5% Triton X-100, 100 μg/ml phenyl-metylsulfonyl fluoride, 1 μg/ml leupeptin and 2 μg/ml aprotinin), placed on ice for 15 minutes and following clarification centrifuged for 10 minutes at 13,000 g. Protein content of homogenates were determined by Lowry assay.
Protein in lysates (90 μg) were separated by electrophoresis using 8% SDS-PAGE and separated proteins were transferred onto a nitrocellulose membrane (Amersham) in trans-blot electrophoretic transfer cell (Bio-Rad Laboratories).
After washing in TTBS the blots were reincubated with horseradish peroxidase conjugated secondary antibody (anti-goat antibodies 2020, Santa Cruz) diluted 1:4000 in TTBS containing 3% (w/v) non-fat, dried milk for one hour. Blots were developed using an enhanced chemiluminescence system (ECL, Amersham) and exposed to Hyperfilm ECL (Amersham). Optical density was measured densitometrically.
The blots were striped and rehybridized with antibodies against β-catenin (C-18, sc. 1496) and COX-2 (C-20, sc 1745) antibodies.
In the second animal experiment tumours were investigated for expression of β-catenin, COX-2 and cyclin D1 (A-12, sc. 8396).

cyclin D1 = experiment: as above; assay type: in vivo; settings: Animals II; exposure 80 hours in all arms
Protocol: as §7
(§8) Group 1 received a single dose of 10 mg 17α-AED sc. near tumour.
(§9) Group 2 received a single dose of 80 mg 17β-AED in the same way.
(§10) Group 3 received a single dose of 25 mg 17α OH-pregnenolone in the same way.
(§11) Group 4 received a single dose of 7.5 mg 5-androstene-3β,7β,17α-triol.
Protein content of homogenates were determined by Lowry assay.

VEGF = experiment: Immunostaining of tumour sections against VEGF; assay type: in vivo, rat; settings: Animals II
Protocol: Working dilution 1:100. As negative control antibody a mouse IgG, clone DAK-GO1, kappa, ×931, Dako, was used with a working dilution of 1:50.
as §7, §8, §9, §10, §11

[3] = test system: Dunning R 3327, AT-1, rat prostatic tumour; experiment: Tumour growth after s.c. injection near tumour; assay type: in vivo; settings: Animals II; single s.c. injection in the proximity of the tumour
Protocol: as §7, §8, §9, §10, §11
A fifth group served as tumour bearing controls.

Compound	dead (DU-145)	viable (DU-145)	dead (MCF-7)	viable (MCF-7)	dead (PC-3)	viable (PC-3)	dead (SKBR-3)	viable (SKBR-3)	PPARγ-ligand activity of the 3β-sulfate (PPARγ [1])	PPARγ-ligand activity of the 3β-sulfate (PPARγ [1]; listed as 5-androstene-17α-ol-3β-sulfate)	expression of PPARγ (PPARγ [2]; DU-145, 100 nM, repeated experiment)	PPARγ expression (PPARγ [2]; PC-3 cells, 100 nM, repeated experiment)	expression of PPARγ (PPARγ [2]; both cell lines (PC-3, DU-145))	expression of PPARδ (PPARδ)	expression of β-catenin (β-catenin)	expression of cyclin D1 (cyclin D1)	staining for VEGF (VEGF)	tumour volumes [3]	PPARγ-ligand activity, steroid + liver cytosol + PAPS (PPARγ [1])	PPARγ-ligand activity, native steroid + liver cytosol (PPARγ [1])
C[C@]12CC[C@H]3[C@@H](CC=C4C[C@@H](OS(=O)(=O)O)CC[C@@]43C)[C@@H]1CC[C@H]2O [17α-AED-3βsulfate, 5-androstene-17α-ol-3β-sulfate]	18%	70%	15%	75%	12%	81%	21%	66%	shows PPARγ-activity	only sample demonstrating PPARγ-ligand activity	Expression of PPARγ was observed	increased	increased the expression of PPARγ significantly	no effect	–	–	–	–	–	–
CC(=O)[C@@]1(O)CC[C@H]2[C@@H]3CC=C4C[C@@H](O)CC[C@]4(C)[C@H]3CC[C@@]21C [17αOH-pregnenolone, 17-hydroxy-pregnenolone (17α-OH)]	–	–	–	–	–	–	–	–	–	–	–	–	–	–	same pattern, but even more marked	same pattern, but even more marked	almost complete disappearance of staining for VEGF	~−50%	insignificant responses	insignificant responses
C[C@]12CC[C@H]3[C@@H]([C@@H](O)C=C4C[C@@H](O)CC[C@@]43C)[C@@H]1CC[C@H]2O [5-androstene-3β,7β,17α-triol, 3β,7β,17α-trihydroxy-androst-5-en]	–	–	–	–	–	–	–	–	–	–	–	–	–	–	down-regulation	down-regulation	almost complete disappearance of detectable VEGF In tumours in 2 cases, a modest downregulation in 1 and unchanged appearance in 1	–	insignificant responses	insignificant responses
